Where “and” joins values, the source holds several entries; their conditions need not be identical. Equal entries are not always repeated. Entries after “also recorded” stand apart in the source; their conditions may differ. Where two headings read alike, the source gives them in different places.

The target of data set [1] is α1β1γ2 GABAA receptors (Rattus norvegicus, UniProt P15431+P62813). Format: cell-based, rat α1, rat β1, murine γ2.
Data set [2] deals with α1β2 GABAA receptor (Rattus norvegicus, UniProt P62813+P63138). Type of data set: cell-based, rat α1, rat β2.
The conditions of data set [3]: cited from earlier work.
For data set [4], the target named is α1β2(N265M)γ2 GABAA receptors (Rattus norvegicus, UniProt P62813+P63138, N289M). Briefly: Two-electrode voltage clamp on Xenopus laevis oocytes expressing mutant α1β2. Type of data set: cell-based, rat α1, rat β2, murine γ2.
The target of data set [5] is α1β2γ2 GABAA receptors (Rattus norvegicus, UniProt P62813+P63138). Type of data set: cell-based, rat α1, rat β2, murine γ2.
The subject of data set [6] is 5HT3A receptor. The following applies: cited from earlier work.
Data set [7] concerns the target α1β3γ2 GABAA receptors (UniProt P28472+P62813). Format: cell-based, rat α1, human β3, murine γ2.
Data set [8] deals with α1β2(M286W)γ2 GABAA receptors (Rattus norvegicus, UniProt P62813+P63138, M310W). The data set can be described thus: Two-electrode voltage clamp on Xenopus laevis oocytes expressing mutant α1β2. Type of data set: cell-based, rat α1, rat β2, murine γ2. In general terms: Two-electrode voltage clamp holds a large cell at a set potential and records current.
In data set [9] the target is α1β2γ2 receptors. The following applies: read-out: EC50 for potentiation; cited from earlier work.

α1β2 GABAA receptor, sequence (P62813 28-455): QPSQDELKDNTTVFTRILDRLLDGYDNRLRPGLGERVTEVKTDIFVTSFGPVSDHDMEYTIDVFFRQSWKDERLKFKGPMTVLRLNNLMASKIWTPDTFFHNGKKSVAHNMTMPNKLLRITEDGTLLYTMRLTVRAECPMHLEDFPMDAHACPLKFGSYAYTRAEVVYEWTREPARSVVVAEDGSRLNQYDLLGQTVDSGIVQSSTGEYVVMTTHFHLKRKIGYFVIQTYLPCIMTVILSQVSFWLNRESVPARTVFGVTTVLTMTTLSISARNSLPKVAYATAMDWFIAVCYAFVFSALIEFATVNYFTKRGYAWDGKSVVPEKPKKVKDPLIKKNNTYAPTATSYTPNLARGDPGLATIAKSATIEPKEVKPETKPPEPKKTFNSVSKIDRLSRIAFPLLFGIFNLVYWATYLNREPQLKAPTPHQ
α1β2 GABAA receptor, sequence (P63138 25-474 limits assumed): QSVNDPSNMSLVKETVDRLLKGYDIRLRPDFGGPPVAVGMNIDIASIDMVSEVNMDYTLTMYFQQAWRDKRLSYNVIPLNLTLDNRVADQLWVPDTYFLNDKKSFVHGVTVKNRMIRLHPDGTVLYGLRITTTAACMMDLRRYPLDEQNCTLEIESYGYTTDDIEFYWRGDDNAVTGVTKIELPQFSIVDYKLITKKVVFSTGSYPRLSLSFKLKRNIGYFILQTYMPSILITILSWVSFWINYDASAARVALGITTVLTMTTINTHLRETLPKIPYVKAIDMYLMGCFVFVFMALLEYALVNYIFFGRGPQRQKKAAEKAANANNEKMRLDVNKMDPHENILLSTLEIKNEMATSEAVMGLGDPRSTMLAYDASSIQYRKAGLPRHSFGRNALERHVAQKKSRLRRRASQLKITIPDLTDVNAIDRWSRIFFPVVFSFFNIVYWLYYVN
α1β3γ2 GABAA receptors, sequence (P62813 28-455): as the sequence (P62813 28-455) above
α1β3γ2 GABAA receptors, sequence (P28472 26-473): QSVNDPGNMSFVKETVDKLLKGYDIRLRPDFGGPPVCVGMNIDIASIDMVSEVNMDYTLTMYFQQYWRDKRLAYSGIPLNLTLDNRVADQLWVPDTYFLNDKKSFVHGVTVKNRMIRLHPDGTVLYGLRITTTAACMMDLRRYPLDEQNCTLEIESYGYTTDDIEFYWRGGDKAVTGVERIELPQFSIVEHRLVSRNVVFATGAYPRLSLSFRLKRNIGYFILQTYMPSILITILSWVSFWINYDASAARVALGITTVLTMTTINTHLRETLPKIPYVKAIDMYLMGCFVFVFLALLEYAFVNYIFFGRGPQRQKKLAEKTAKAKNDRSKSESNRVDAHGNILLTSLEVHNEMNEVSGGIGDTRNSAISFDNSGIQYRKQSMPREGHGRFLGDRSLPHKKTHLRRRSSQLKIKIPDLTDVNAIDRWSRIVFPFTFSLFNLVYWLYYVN
α1β3γ2 GABAA receptors, sequence (P22723 39-474 partner): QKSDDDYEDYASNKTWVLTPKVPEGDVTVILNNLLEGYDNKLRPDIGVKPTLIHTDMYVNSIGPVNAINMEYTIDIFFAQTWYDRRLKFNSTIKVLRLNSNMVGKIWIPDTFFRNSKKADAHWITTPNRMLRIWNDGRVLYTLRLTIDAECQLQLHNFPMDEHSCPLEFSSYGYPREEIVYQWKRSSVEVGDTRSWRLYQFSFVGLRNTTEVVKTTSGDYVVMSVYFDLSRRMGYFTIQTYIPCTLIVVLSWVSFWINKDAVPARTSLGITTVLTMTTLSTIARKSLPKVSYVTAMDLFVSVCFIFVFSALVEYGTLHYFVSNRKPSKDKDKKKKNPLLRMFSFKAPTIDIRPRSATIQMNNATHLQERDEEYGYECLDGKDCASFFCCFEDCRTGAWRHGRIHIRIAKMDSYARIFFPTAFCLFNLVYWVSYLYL
α1β1γ2 GABAA receptors, sequence (P62813 28-455): as the sequence (P62813 28-455) above
α1β1γ2 GABAA receptors, sequence (P15431 26-474): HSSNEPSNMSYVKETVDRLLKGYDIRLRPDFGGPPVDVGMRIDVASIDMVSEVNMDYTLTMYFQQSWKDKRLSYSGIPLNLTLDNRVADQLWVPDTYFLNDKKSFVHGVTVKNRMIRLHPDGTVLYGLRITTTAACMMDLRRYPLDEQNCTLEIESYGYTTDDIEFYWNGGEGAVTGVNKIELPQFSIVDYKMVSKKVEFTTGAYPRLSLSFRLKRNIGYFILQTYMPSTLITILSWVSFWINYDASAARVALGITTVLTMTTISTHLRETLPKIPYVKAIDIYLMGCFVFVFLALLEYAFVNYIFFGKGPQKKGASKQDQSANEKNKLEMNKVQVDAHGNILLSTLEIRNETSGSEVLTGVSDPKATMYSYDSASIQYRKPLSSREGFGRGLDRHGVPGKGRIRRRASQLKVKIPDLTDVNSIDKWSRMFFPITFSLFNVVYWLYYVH
α1β1γ2 GABAA receptors, sequence (P22723 39-474 partner): as the sequence (P22723 39-474 partner) above
α1β2γ2 GABAA receptors, sequence (P62813 28-455): as the sequence (P62813 28-455) above
α1β2γ2 GABAA receptors, sequence (P63138 25-474 limits assumed): as the sequence (P63138 25-474 limits assumed) above
α1β2γ2 GABAA receptors, sequence (P22723 39-474 partner): as the sequence (P22723 39-474 partner) above
α1β2(M286W)γ2 GABAA receptors, sequence (P62813 28-455): as the sequence (P62813 28-455) above
α1β2(M286W)γ2 GABAA receptors, sequence (P63138 25-474 M310W limits assumed): as the sequence (P63138 25-474 limits assumed) above, with M286W counted along it
α1β2(M286W)γ2 GABAA receptors, sequence (P22723 39-474 partner): as the sequence (P22723 39-474 partner) above
α1β2(N265M)γ2 GABAA receptors, sequence (P62813 28-455): as the sequence (P62813 28-455) above
α1β2(N265M)γ2 GABAA receptors, sequence (P63138 25-474 N289M limits assumed): as the sequence (P63138 25-474 limits assumed) above, with N265M counted along it
α1β2(N265M)γ2 GABAA receptors, sequence (P22723 39-474 partner): as the sequence (P22723 39-474 partner) above

As for `CC1(C)C=Cc2c(ccc3c2OC[C@@H](c2ccc(O)cc2O)C3)O1` [glabridin], the concentration for a half-maximal effect (EC50) (commonly the concentration at which the effect is half-maximal) is 17.2 ± 2.64 µM in data set [1]; 9.63 ± 0.7 µM in [2]; 32.6 ± 1.52 µM in [4]; 6 µM and 6.3 µM in [5] (Modulatory EC50, α1β2γ2, potentiation of current evoked by 3 µM GABA); 6.83 ± 3.07 µM in [7]. Moreover, the “Fold decrease of GABA EC50” value in data set [1] (α1β1γ2, 30 µM glabridin) was 4.4 fold; in [2] (α1β2, 30 µM glabridin) it was 1.8 fold; in [4] (α1β2(N265M)γ2, 30 µM glabridin), 3.5 fold; in data set [5] (α1β2γ2, 30 µM glabridin) it was 12 fold and 12.3 fold; in data set [5] (α1β2γ2, 30 µM glabridin, listed as Glabridin), “approximately 12 fold”; in data set [7] (α1β3γ2, 30 µM glabridin) it was 6.8 fold. Besides, the “Fold decrease of GABA EC50” value in [8] (30 µM glabridin) turned out to be 0.75 fold. For the same compound, the “Direct activation by 30 µM glabridin” value in [1] (α1β1γ2, 30 µM glabridin in the absence of GABA, normalized to GABA current) amounted to 0.14±0.08; in [2] (α1β2, 30 µM glabridin in the absence of GABA, normalized to GABA current) it was 0.11±0.05; in [5] (α1β2γ2, 30 µM glabridin in the absence of GABA, normalized to GABA current), 0.07±0.02; in data set [7] (α1β3γ2, 30 µM glabridin in the absence of GABA, normalized to GABA current), 0.08±0.04. Also, the “Fold potentiation by 30 µM glabridin” value is listed as 5.07±1.45 fold in data set [1] (α1β1γ2, 30 µM glabridin, 1 µM GABA); 4.23±0.56 fold in data set [2] (α1β2, 30 µM glabridin, 3 µM GABA); 6.20±1.41 fold in [5] (α1β2γ2, 30 µM glabridin, 3 µM GABA); 2.63±0.42 fold in data set [7] (α1β3γ2, 30 µM glabridin, 10 µM GABA); 1.04±0.05 fold in data set [8] (30 µM glabridin, 3 µM GABA). In addition, the “Crossing of the blood-brain-barrier” value in data set [3] is “able to cross the blood-brain-barrier”. Besides, the “Concentration at which potentiation of GABA-induced currents starts” value in data set [5] (α1β2γ2, 3 µM GABA) is listed as 1 µM. For the same compound, the “Concentration of maximal potentiation” value in data set [5] (α1β2γ2, 3 µM GABA) is given as “approximately 30 µM”. Moreover, in [5] (α1β2γ2, 3 µM GABA, 30 µM glabridin, 1 µM flumazenil), the “Potentiating action of 30 µM glabridin in the presence of flumazenil” value was “not significantly altered”. Moreover, in data set [5] (α1β2γ2, 100 µM glabridin in the absence of GABA, n=4), the “Direct activation, share of the maximally evoked current by saturating GABA concentrations” value is reported as “up to 17±7%”. Moreover, the “Screening for potentiation of GABA-induced currents” value in [5] (α1β2γ2, components of Glycyrrhiza at 10 µM, n=3–4) is “the only potentiator of the tested substances”. Further, the “Direct activation at lower concentrations” value in data set [5] (α1β2γ2, glabridin up to 10 µM in the absence of GABA) is reported as “failed to activate”. Moreover, the “Threshold concentration for direct activation” value in data set [5] (α1β2γ2, in the absence of GABA) was 30 µM. Besides, the “Maximally induced current evoked by 1 mM GABA” value in data set [5] (α1β2γ2, with 30 µM glabridin, p=0.055, n=4) was “not significantly altered”. Also, the “Action on 5HT3A receptor channel” value in [6] is recorded as “blocker of the channel”. The “Modulatory EC50” value in data set [8] (potentiation of current evoked by 3 µM GABA) is “Neither a potentiating effect nor any shift; also recorded: no potentiation”.

Regarding `CC(C)c1cccc(C(C)C)c1O` [propofol], the 50% effective concentration (EC50) in data set [9] is about 2 µM.

The values above are taken from publication PMC5689168 (Biochemistry and Biophysics Reports, 2016).
